Experimental findings from patent US11965100B2, “Aggregation-induced emission luminogens useful for cancer cell discrimination and monitoring” (The Hong Kong University of Science and Technology, priority 2020, dated 2024) are described below.

This assay has as its system A549 and HLF cells. Description: CLSM imaging of A549 and HLF cells seeded on different cover glasses in the same dish. The note with it: 2 μM, 30 min. It counts as cell-based, human. As for the experimental part: FIG. 5 CLSM images of live cancer cells (A549 and HeLa) co-cultured with normal cells (COS7 and HLF) (A), and the images of A549 and HLF cells seeded on different cover glasses (Scale bar=20 μm) (B) stained with 2 μM IVP-02 for 30 min (Scale bar=50 μm), respectively. λex=488 nm, λem=500-650 nm.
FIG. 10 CLSM images of live cancer cells (A549) co-cultured with normal cells (COS7) (A), and the images of A549 and HLF cells seeded on different cover glasses Scale bar=20 μm (B) stained with 2 μM IVP-02, 04, 06, 22, 42, and 62 for 30 min Scale bar=50 μm, respectively. (The first column in B is the same as FIG. 3B) λex=488 nm, λem=500-650 nm.
The bioimaging properties of IVP-02 in live cells were investigated by confocal laser scanning microscopy (CLSM). Cancer cells (A549 and HeLa) and normal cells (COS7 and HLF) were stained with IVP-02, respectively. […] So IVP-02 holds the high potential to differentiate cancer and normal cells. To verify this speculation, cancer and normal cells were co-cultured and stained with IVP-02. […] To precisely confirm the selectivity of IVP-02 to cancer cells, cancer cells A549 and normal cells HLF (A549 and HLF are both human lung cells) were seeded on different cover glasses, respectively. Then the two cover glasses were put in the same dish and stained with IVP-02 at the same time.
Cancer cells A549 co-cultured with normal cells COS7 were stained with these molecules, respectively. […] Then HeLa cells co-cultured with COS7 cells (FIG. 11), and A549 cells co-cultured with HLF cells (FIG. 12) were also stained with these molecules, the results were similar with that in A549 cells co-cultured with COS7 cells. In addition to co-culturing, A549 cells and HLF cells were also seeded on different cover glasses and stained with these molecules. […] Based on the imaging results above, it can be concluded that the selectivity of these IVP molecules to cancer cells is also based on the length of alkyl chain at pyridinium salt side. Lengthening the alkyl chain at the pyridinium salt side will eliminate the selectivity to cancer cells.

On to `CC[n+]1ccc(/C=C/c2c[nH]c3ccccc23)cc1` [IVP-02], for which the “staining of A549 and HLF cells on different cover glasses” value is on record as “only A549 cells on the upper cover glass were illuminated”.
